ChEMBL document CHEMBL2203204, “Identification of selective inhibitors of indoleamine 2,3-dioxygenase 2” (Bioorg Med Chem Lett, 2012)
Active and inactive are the calls of the source. The calls are words filed in the database; no cut-off is given here.

Assays:
[1] = target: T1, Indoleamine 2,3-dioxygenase 2 (Mus musculus) (UniProt Q8R0V5); settings: HEK-293T, at 20 µM
T1 sequence (whole entry): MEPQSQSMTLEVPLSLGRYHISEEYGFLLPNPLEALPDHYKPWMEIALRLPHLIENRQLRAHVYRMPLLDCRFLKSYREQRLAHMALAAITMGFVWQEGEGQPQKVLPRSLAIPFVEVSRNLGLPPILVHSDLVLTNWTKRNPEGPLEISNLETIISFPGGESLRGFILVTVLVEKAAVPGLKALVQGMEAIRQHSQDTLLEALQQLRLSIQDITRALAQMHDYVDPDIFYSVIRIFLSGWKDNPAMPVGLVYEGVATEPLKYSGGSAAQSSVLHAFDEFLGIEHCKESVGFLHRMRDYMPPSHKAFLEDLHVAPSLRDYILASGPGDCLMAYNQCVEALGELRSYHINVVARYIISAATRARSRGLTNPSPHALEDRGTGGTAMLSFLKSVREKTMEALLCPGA
Description: (§1) Inhibition of mouse Ido2 transfected in HEK293T cells using L-tryptophan as substrate assessed as kynurenine formation at 20 uM after 45 mins by spectrophotometric analysis relative to control

[2] = target: Tryptophan 2,3-dioxygenase (Mus musculus) (UniProt P48776); assay: Inhibition of mouse Tdo2 transfected in HEK293T cells using L-tryptophan as substrate assessed as kynurenine formation at 100 uM after 45 mins by spectrophotometric analysis relative to control; type: cell-based; settings: HEK-293T
Tryptophan 2,3-dioxygenase (Mus musculus), sequence (P48776 whole entry): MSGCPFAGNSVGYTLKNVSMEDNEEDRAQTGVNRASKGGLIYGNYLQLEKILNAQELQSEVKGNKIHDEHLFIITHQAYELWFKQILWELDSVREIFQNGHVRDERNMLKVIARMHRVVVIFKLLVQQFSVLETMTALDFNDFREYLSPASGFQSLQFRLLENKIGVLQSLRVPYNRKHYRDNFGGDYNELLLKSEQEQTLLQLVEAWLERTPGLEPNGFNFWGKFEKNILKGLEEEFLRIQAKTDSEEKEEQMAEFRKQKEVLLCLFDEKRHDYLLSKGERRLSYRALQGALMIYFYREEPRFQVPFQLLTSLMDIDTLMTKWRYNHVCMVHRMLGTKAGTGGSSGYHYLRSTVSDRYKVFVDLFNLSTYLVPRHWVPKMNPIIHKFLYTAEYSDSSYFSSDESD

[3] = target: T2, Indoleamine 2,3-dioxygenase 2 (Mus musculus, UniProt Q8R0V5); assay: Inhibition of mouse Ido2 transfected in HEK293T cells using L-tryptophan as substrate assessed as kynurenine formation after 45 mins by spectrophotometric analysis; type: cell-based, HEK-293T
T2 sequence (Q8R0V5 whole entry): T1 sequence (whole entry)

[4] = target: Indoleamine 2,3-dioxygenase 1 (Mus musculus, UniProt P28776); assay: Inhibition of mouse Ido1 transfected in HEK293T cells using L-tryptophan as substrate assessed as kynurenine formation after 45 mins by spectrophotometric analysis; type: cell-based, HEK-293T
Indoleamine 2,3-dioxygenase 1, sequence (P28776 whole entry): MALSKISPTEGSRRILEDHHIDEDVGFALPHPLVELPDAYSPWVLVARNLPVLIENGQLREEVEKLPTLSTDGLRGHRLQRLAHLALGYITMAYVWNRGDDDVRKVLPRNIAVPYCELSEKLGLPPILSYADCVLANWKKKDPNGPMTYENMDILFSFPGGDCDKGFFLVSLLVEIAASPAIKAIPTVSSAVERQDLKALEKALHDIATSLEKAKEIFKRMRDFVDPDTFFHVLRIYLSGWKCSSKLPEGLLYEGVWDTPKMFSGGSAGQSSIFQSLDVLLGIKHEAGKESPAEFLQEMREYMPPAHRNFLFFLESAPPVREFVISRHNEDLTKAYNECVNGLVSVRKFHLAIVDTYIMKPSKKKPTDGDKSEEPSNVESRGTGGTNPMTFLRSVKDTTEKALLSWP

[5] = system: HEK-293T; assay: Cytotoxicity against HEK293T cells assessed as decrease in cell viability at 25 uM after 24 hrs by trypan blue exclusion assay; type: cell-based; settings: human
[6] = organism: Mus musculus; assay: Selectivity ratio of IC50 for mouse Ido1 to IC50 for mouse Ido2
[7] = target: Indoleamine 2,3-dioxygenase 1 (Mus musculus) (UniProt P28776); assay: Inhibition of mouse Ido1 transfected in HEK293T cells using L-tryptophan as substrate assessed as residual activity at 100 uM after 45 mins by spectrophotometric analysis relative to control; type: cell-based; settings: HEK-293T
Indoleamine 2,3-dioxygenase 1 (Mus musculus), sequence (P28776 whole entry, looked up): as the sequence (P28776 whole entry) above

[8] = target: T1, Indoleamine 2,3-dioxygenase 2 (Mus musculus); assay: Inhibition of mouse Ido2 transfected in HEK293T cells using L-tryptophan as substrate assessed as assessed as residual activity at 100 uM after 45 mins by spectrophotometric analysis relative to control; type: cell-based; settings: HEK-293T
[9] = target: Indoleamine 2,3-dioxygenase 2 (Mus musculus) (UniProt Q8R0V5); settings: HEK-293T, at 20 µM; remark: listed apart in the source
Description: as §1

Compound | inhibition [1] | inhibition [2] | IC50 [3] | IC50 [4] | further results
COc1ccccc1OCCNCC(O)COc1cccc2[nH]c3ccccc3c12 (stereo not drawn) | > 55% |  |  |  | 
COc1ccnc(C[S+]([O-])c2nc3cc(OC(F)F)ccc3[nH]2)c1OC (stereo not drawn) |  | inactive |  |  | 
C[C@@H]1CC[C@H]2[C@@H](C)C(=O)O[C@@H]3O[C@@]4(C)CC[C@@H]1[C@]32OO4 | > 55% |  |  |  | 
C[C@H](CS)C(=O)N1CCC[C@H]1C(=O)O | > 55% |  |  |  | 
Clc1ccc(C(Cn2ccnc2)OCc2ccsc2Cl)c(Cl)c1 (stereo not drawn) | > 55% |  |  |  | 
Clc1ccc(C(Cn2ccnc2)OCc2csc3c(Cl)cccc23)c(Cl)c1 (stereo not drawn) | > 55% |  |  |  | 
Clc1ccc(CO/N=C(\Cn2ccnc2)c2ccc(Cl)cc2Cl)c(Cl)c1 | > 55% |  |  |  | 
NC[C@H]1CC[C@H](C(=O)O)CC1 | > 55% |  |  |  | 
O=C(O)Cc1sc(-c2ccccc2)nc1-c1ccc(Cl)cc1 | > 55% |  |  |  | 
O=C1Nc2ccc(Cl)cc2[C@@](C#CC2CC2)(C(F)(F)F)O1 | > 55% |  |  |  | 
OCCN(CCO)c1nc(N2CCCCC2)c2nc(N(CCO)CCO)nc(N3CCCCC3)c2n1 | > 55% |  |  |  | 
c1ccc(-c2ccc(C(c3ccccc3)n3ccnc3)cc2)cc1 (stereo not drawn) | > 55% |  |  |  | 
Clc1ccccc1C(c1ccccc1)(c1ccccc1)n1ccnc1 [CLOTRIMAZOLE] |  | > 95% | 5.9 µM | 51.6 µM | 
Clc1ccc(COC(Cn2ccnc2)c2ccc(Cl)cc2Cl)cc1 (stereo not drawn) [ECONAZOLE] |  | > 95% | 7.6 µM | 11.2 µM | 
CC1=C(/C=C/C(C)=C/C=C/C(C)=C/C(=O)Nc2ccc(O)cc2)C(C)(C)CCC1 [FENRETINIDE] | > 55% | 32% | 18.7 µM | 59.9 µM | Activity [5]: Non-toxic
Cc1c(OCC(F)(F)F)ccnc1C[S+]([O-])c1nc2ccccc2[nH]1 (stereo not drawn) [LANSOPRAZOLE] |  | < 20% | 8.2 µM | 94 µM | Activity [5]: Non-toxic
Clc1ccc(COC(Cn2ccnc2)c2ccc(Cl)cc2Cl)c(Cl)c1 (stereo not drawn) [MICONAZOLE] | > 55% | > 95% | 6.7 µM | 17.8 µM | Activity [5]: Non-toxic
COC(=O)C1=C(C)NC(C)=C(C(=O)OC)C1c1ccccc1[N+](=O)[O-] [NIFEDIPINE] | > 55% | < 20% | 1.5 µM | 46 µM | Ratio IC50 [6]: 30
COc1ccnc(C[S+]([O-])c2nc3ccc(OC(F)F)cc3[nH]2)c1OC (stereo not drawn) [PANTOPRAZOLE] |  |  | 12.6 µM | 109 µM | 
CCCc1nn(C)c2c(=O)[nH]c(-c3cc(S(=O)(=O)N4CCN(C)CC4)ccc3OCC)nc12 [SILDENAFIL] | > 55% | inactive | 4.5 µM | > 100 µM | 
Clc1ccc(CSC(Cn2ccnc2)c2ccc(Cl)cc2Cl)cc1 (stereo not drawn) [SULCONAZOLE] |  | > 95% | 10.1 µM | 29.3 µM | 
COc1ccc2[nH]c([S+]([O-])Cc3ncc(C)c(OC)c3C)nc2n1 (stereo not drawn) [TENATOPRAZOLE] | > 55% | inactive | 1.8 µM | > 100 µM | 
CC1=C(/C=C/C(C)=C/C=C/C(C)=C/C(=O)O)C(C)(C)CCC1 [TRETINOIN] | > 55% | inactive | 28.7 µM | 301 µM | Ratio IC50 [6]: 10; Activity [7]: 100%; Activity [8]: < 5%
Cc1c(C)c2c(c(C)c1O)CCC(C)(COc1ccc(CC3SC(=O)NC3=O)cc1)O2 (stereo not drawn) [TROGLITAZONE] | > 55% | < 20% | 4.5 µM | 61 µM | Ratio IC50 [6]: 14
AURANOFIN |  |  |  |  | inhibition [9]: > 55%
